Laboratory results: PMC4335020, “Single Oral Dose Pharmacokinetics of Decursin and Decursinol Angelate in Healthy Adult Men and Women” (PLoS ONE, 2015)
Where two headings read alike, the source gives them in different places.

Test: Single oral dose human plasma pharmacokinetics of D, DA and DOH after Cogni.Q
Assay type: in vivo
Text: Ten healthy male and 10 female subjects were recruited by public announcement in Amarillo, TX, from January 2013 to April 2013 (see Fig. 1 CONSORT diagram). The sample size for each gender was chosen without power calculation due to the lack of prior knowledge of PK parameter variance in humans. After receiving informed consent verbally and in writing, the health status of each candidate was confirmed by health questionnaire, plasma biochemistry (hepatic and renal functions), complete blood cell count (CBC), and a physical examination by a participating academic physician. Subjects with diabetes, or pregnant, perinatal and breastfeeding women were excluded. For the 48 hours preceding study visit until the final blood draw, all subjects were instructed to avoid taking any prescription or nonprescription drugs, vitamins, and herbal/dietary supplements. Each subject was compensated for participating in the study per TTUHSC IRB approved rate.
Eligible subjects arrived at our clinical facility at 0700 (7:00 am) on the test day after a fast beginning at 2200 (10:00 pm) the previous night. After a brief review of vital signs, the nurse placed an intravenous (IV) line with saline drip in one arm of each subject. A baseline pre-dose (hour 0) blood sample was drawn through the IV line; after that subjects swallowed four Cogni.Q vegicaps with 240 mL of water at hour 0 under direct supervision. Subjects stayed at the clinical facility in their room for the next 12 hours, returning at 24 and 48 hours. Blood was drawn at baseline (hour 0) and at 0.5, 1, 2, 3, 4, 6, 8, 12, 24 and 48 hours after dosing into Vacutainer Blood Collection Tube (Becton-Dickinson, Franklin Lakes, NJ. Product Number: 367874, Sodium heparin was used as anti-coagulant). Water was allowed as desired except for within the first hour after Cogni.Q consumption. All subjects received standardized meals at post-dose hours 4.5 and 9.5 but no food was allowed for at least the first 4 hours post-dose.
Plasma was prepared by centrifuging the heparinized blood at 1000 g for 15 minutes at room temperature. Urine samples (40mL) were collected within time spans of 0–4, 4–8, 8–12 and 12–24 hours (total volume of urine was recorded). All plasma and urine samples were put on dry ice immediately and then stored at -80°C freezer until analysis.
Plasma samples were extracted with a validated solid supported liquid extraction (SLE) method facilitated with a positive pressure manifold (Biotage, Charlotte, NC). Briefly, 100 μL of plasma sample was spiked with 5 μL of 10 ng/μL prednisolone (IS), diluted with 200 μL of LC-MS grade water, mixed and loaded onto ISOLUTE SLE+ 400 μL Array Well cartridges (Biotage, Charlotte, NC). A pulse of minimum positive pressure was applied to facilitate the samples absorption into the cartridges. After the samples were allowed to absorb for 5 min, the compounds were eluted with 2×500 μL tert-butyl methyl ether. The eluent was dried in a Speedvac and the resulting residue was reconstituted in 50 μL of methanol for UHPLC-MS/MS analysis.
Eight-point calibration curves were constructed for D, DA and DOH, at concentrations of 0.1, 0.5, 1, 5, 10, 20, 50 and 100 μg/L for D and DA, and at concentrations of 1, 5, 10, 50, 100, 200, 500 and 1000 μg/L for DOH, respectively. The linear range was 0.1–100 μg/L (0.3–300 nmol/L), 0.1–100 μg/L (0.3–300 nmol/L) and 1–1000 μg/L (4–4000 nmol/L) for D, DA and DOH, respectively. The inter- and intra-assay CV were lower than 6.5% and the accuracy was between 90–105%. Calibration curve was run for each batch of samples analyzed. The mean calibration curve correlation coefficient (r) for D, DA and DOH was 0.999, 0.999 and 0.998, respectively (data from 7–10 calibration curves). In addition, 70% of the plasma samples were extracted and analyzed twice, the data from two replicate analyses were nearly identical and combined for final data analyses and presentation. […]

CC1(C)Oc2cc3oc(=O)ccc3cc2C[C@@H]1O [DOH, decursinol]
Cmax (both sexes, human, plasma, oral, 4 Cogni.Q vegicaps, n=20 (S1 Table), read-out: Cmax, nM, Grand Mean): 2480 nM | Tmax (both sexes, human, plasma, oral, 4 Cogni.Q vegicaps, n=20 (S1 Table), read-out: Tmax, h, Grand Mean): 3.3 h | half-life (both sexes, human, plasma, oral, all subjects, outliers excluded (S1 Table), read-out: Terminal t1/2, h, Grand Mean (converted)): 7.4 h | Cmax (both sexes, human, plasma, oral, human subjects, read-out: plasma C max, average value): 2500 nM | AUC(0-t) (both sexes, human, plasma, oral, n=20 (S1 Table), read-out: AUC0-48h, Grand Mean): 27600 nmol·h/L | Cmax (both sexes, human, plasma, oral, range over human subjects, read-out: plasma C max, range in human subjects): 1300 to 4000 nM | Cmax (both sexes, human, plasma, po, all human subjects n = 20, single oral dose 4 Cogni.Q vegicaps (119 mg D, 77 mg DA), plasma, read-out: Cmax, nmol/L Mean (SD)): 2480 nM | AUC(0-t) (both sexes, human, plasma, po, all human subjects n = 20, single oral dose Cogni.Q, plasma (Table 2), read-out: AUC0–48h, nmol/L, Mean (SD)): 27600 nmol·h/L | AUC(0-t) (both sexes, human, twenty healthy subjects, single oral dose Cogni.Q, plasma (abstract), read-out: mean area under the curve (AUC0-48h)): 27600 nmol·h/L | Tmax (both sexes, all human subjects n = 20, single oral dose 4 Cogni.Q vegicaps (119 mg D, 77 mg DA), plasma, read-out: Tmax, h, Mean (SD)): 3.3 h | half-life (both sexes, all human subjects, four outlier subjects excluded, single oral dose Cogni.Q, plasma, read-out: Terminal t1/2, h, Mean (SD) (converted)): 7.4 h | AUC(0-t) (female, human, plasma, oral, 4 Cogni.Q vegicaps, Women n=10 (S1 Table), read-out: AUC0-48h, Mean, F): 32700 nmol·h/L | Cmax (female, human, plasma, oral, 4 Cogni.Q vegicaps, Women n=10 (S1 Table), read-out: Cmax, nM, Mean, F): 2610 nM | Tmax (female, human, plasma, oral, Women n=10 (S1 Table), read-out: Tmax, h, Mean, F): 4.1 h | half-life (female, human, plasma, oral, Women, outliers excluded (S1 Table), read-out: Terminal t1/2, h, Mean, F (converted)): 8.3 h | AUC(0-t) (female, human, plasma, po, Women N = 10, single oral dose Cogni.Q, plasma, read-out: AUC0–48h, h.nmol/L Mean (SD)): 32700 nmol·h/L | Cmax (female, human, plasma, po, Women N = 10, single oral dose Cogni.Q, plasma, read-out: Cmax, nmol/L, Mean (SD)): 2610 nM | Tmax (female, human, plasma, po, Women N = 10, single oral dose Cogni.Q, plasma, read-out: Tmax, h, Mean (SD)): 4.1 h | half-life (female, human, plasma, po, Women, outlier subjects excluded, single oral dose Cogni.Q, plasma, read-out: T1/2, h, terminal Mean (SD) (converted)): 8.3 h | half-life (human, plasma, oral, 4 Cogni.Q vegicaps, subject S1 (115 lb), outlier, excluded from means, read-out: Terminal t1/2, h (converted)): 9.9 h | AUC(0-t) (human, plasma, oral, 4 Cogni.Q vegicaps, subject S1 (115 lb), read-out: AUC0-48h): 17600 nmol·h/L | Cmax (human, plasma, oral, 4 Cogni.Q vegicaps, subject S1 (115 lb), read-out: Cmax): 2380 nM | Tmax (human, plasma, oral, 4 Cogni.Q vegicaps, subject S1 (115 lb), read-out: Tmax): 3 h | AUC(0-t) (human, plasma, oral, 4 Cogni.Q vegicaps, subject S2 (194 lb), read-out: AUC0-48h): 25000 nmol·h/L | Cmax (human, plasma, oral, 4 Cogni.Q vegicaps, subject S2 (194 lb), read-out: Cmax): 2390 nM | half-life (human, plasma, oral, 4 Cogni.Q vegicaps, subject S2 (194 lb), read-out: Terminal t1/2, h (converted)): 9.2 h | Tmax (human, plasma, oral, 4 Cogni.Q vegicaps, subject S2 (194 lb), read-out: Tmax): 4 h | half-life (human, plasma, oral, 4 Cogni.Q vegicaps, subject S3 (170 lb), outlier, excluded from means, read-out: Terminal t1/2, h (converted)): 5.2 h | AUC(0-t) (human, plasma, oral, 4 Cogni.Q vegicaps, subject S3 (170 lb), read-out: AUC0-48h): 8310 nmol·h/L | Cmax (human, plasma, oral, 4 Cogni.Q vegicaps, subject S3 (170 lb), read-out: Cmax): 1560 nM | Tmax (human, plasma, oral, 4 Cogni.Q vegicaps, subject S3 (170 lb), read-out: Tmax): 6 h | AUC(0-t) (human, plasma, oral, 4 Cogni.Q vegicaps, subject S4 (170 lb), read-out: AUC0-48h): 63700 nmol·h/L | Cmax (human, plasma, oral, 4 Cogni.Q vegicaps, subject S4 (170 lb), read-out: Cmax): 2680 nM | half-life (human, plasma, oral, 4 Cogni.Q vegicaps, subject S4 (170 lb), read-out: Terminal t1/2, h (converted)): 11.1 h | Tmax (human, plasma, oral, 4 Cogni.Q vegicaps, subject S4 (170 lb), read-out: Tmax): 6 h | AUC(0-t) (human, plasma, oral, 4 Cogni.Q vegicaps, subject S5 (161 lb), read-out: AUC0-48h): 19200 nmol·h/L | Cmax (human, plasma, oral, 4 Cogni.Q vegicaps, subject S5 (161 lb), read-out: Cmax): 1530 nM | half-life (human, plasma, oral, 4 Cogni.Q vegicaps, subject S5 (161 lb), read-out: Terminal t1/2, h (converted)): 7.7 h | Tmax (human, plasma, oral, 4 Cogni.Q vegicaps, subject S5 (161 lb), read-out: Tmax): 2 h | AUC(0-t) (human, plasma, oral, 4 Cogni.Q vegicaps, subject S6 (120 lb), read-out: AUC0-48h): 37500 nmol·h/L | Cmax (human, plasma, oral, 4 Cogni.Q vegicaps, subject S6 (120 lb), read-out: Cmax): 2770 nM | half-life (human, plasma, oral, 4 Cogni.Q vegicaps, subject S6 (120 lb), read-out: Terminal t1/2, h (converted)): 7.2 h | Tmax (human, plasma, oral, 4 Cogni.Q vegicaps, subject S6 (120 lb), read-out: Tmax): 4 h | AUC(0-t) (human, plasma, oral, 4 Cogni.Q vegicaps, subject S7 (180 lb), read-out: AUC0-48h): 51800 nmol·h/L | Cmax (human, plasma, oral, 4 Cogni.Q vegicaps, subject S7 (180 lb), read-out: Cmax): 3970 nM | half-life (human, plasma, oral, 4 Cogni.Q vegicaps, subject S7 (180 lb), read-out: Terminal t1/2, h (converted)): 6.5 h | Tmax (human, plasma, oral, 4 Cogni.Q vegicaps, subject S7 (180 lb), read-out: Tmax): 6 h | AUC(0-t) (human, plasma, oral, 4 Cogni.Q vegicaps, subject S8 (160 lb), read-out: AUC0-48h): 30400 nmol·h/L | Cmax (human, plasma, oral, 4 Cogni.Q vegicaps, subject S8 (160 lb), read-out: Cmax): 2530 nM | half-life (human, plasma, oral, 4 Cogni.Q vegicaps, subject S8 (160 lb), read-out: Terminal t1/2, h (converted)): 5.5 h | Tmax (human, plasma, oral, 4 Cogni.Q vegicaps, subject S8 (160 lb), read-out: Tmax): 3 h | AUC(0-t) (human, plasma, oral, 4 Cogni.Q vegicaps, subject S9 (158 lb), read-out: AUC0-48h): 17700 nmol·h/L | Cmax (human, plasma, oral, 4 Cogni.Q vegicaps, subject S9 (158 lb), read-out: Cmax): 2110 nM
